Laboratory results as given in the supplement of paper PMC10307832.

Columns and labels:
Experiment in all cases: relative viability (nuclei count vs DMSO), 5 days (fraction); higher = more cells survive
Tosedostat + Crizotinib = compound: CC(C)C[C@@H](C(=O)N[C@H](C(=O)OC1CCCC1)c1ccccc1)[C@H](O)C(=O)NO [Tosedostat] + C[C@@H](Oc1cc(-c2cnn(C3CCNCC3)c2)cnc1N)c1c(Cl)ccc(F)c1Cl [Crizotinib] (partner 1 µM)
In short: (§1)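 After 5 days of treatment, lung cancer cells in 1536-well plates were fixed and stained in a single step (final 0.05% Triton X-100, 1% formaldehyde, 1 ug/ml Hoechst) and their nuclei counted on 4× images. Treatment had been applied by pin tool the day after seeding as one drug alone or as a fixed anchor-drug dose with five library-drug doses (not always all listed) in √10 steps. Relative viability is the nuclei count of treated wells divided by that of vehicle wells, and values are medians of duplicate plates.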

Tosedostat + Linsitinib = compound: CC(C)C[C@@H](C(=O)N[C@H](C(=O)OC1CCCC1)c1ccccc1)[C@H](O)C(=O)NO [Tosedostat] + C[C@]1(O)C[C@@H](c2nc(-c3ccc4ccc(-c5ccccc5)nc4c3)c3c(N)nccn32)C1 [Linsitinib] (partner 1 µM)
In short: as §1

[1] = compound: CC1=NN=C(O1)C2=NN=C(C=C2)N3CCC(CC3)OC4=C(C=CC(=C4)F)Cl + CC(=O)c1c(C)c2cnc(Nc3ccc(N4CCNCC4)cn3)nc2n(C2CCCC2)c1=O [Palbociclib] (partner 0.5 µM)
In short: as §1

[2] = compound: CC1=NN=C(O1)C2=NN=C(C=C2)N3CCC(CC3)OC4=C(C=CC(=C4)F)Cl + Nc1ncn([C@H]2C[C@H](O)[C@@H](CO)O2)c(=O)n1 [Decitabine] (partner 2 µM)
In short: as §1

| Cell Line | relative viability (Tosedostat + Crizotinib; first compound 0.02 µM) | relative viability (Tosedostat + Crizotinib; first compound 0.06325 µM) | relative viability (Tosedostat + Crizotinib; first compound 0.2 µM) | relative viability (Tosedostat + Crizotinib; first compound 0.6325 µM) | relative viability (Tosedostat + Crizotinib; first compound 2 µM) | relative viability (Tosedostat + Linsitinib; first compound 0.02 µM) | relative viability (Tosedostat + Linsitinib; first compound 0.06325 µM) | relative viability (Tosedostat + Linsitinib; first compound 0.2 µM) | relative viability (Tosedostat + Linsitinib; first compound 0.6325 µM) | relative viability (Tosedostat + Linsitinib; first compound 2 µM) | relative viability ([1]; first compound 0.253 µM) | relative viability ([1]; first compound 0.8 µM) | relative viability ([1]; first compound 2.53 µM) | relative viability ([1]; first compound 8 µM) | relative viability ([2]; first compound 0.253 µM) | relative viability ([2]; first compound 0.8 µM) | relative viability ([2]; first compound 2.53 µM) | relative viability ([2]; first compound 8 µM) |
| --- | --- | --- | --- | --- | --- | --- | --- | --- | --- | --- | --- | --- | --- | --- | --- | --- | --- | --- |
| 201T | 1.04 | 1.05 | 1.08 | 1.11 | 1.09 | 0.99 | 1.09 | 1.11 | 1.21 | 1.17 | 0.219 | 0.251 | 0.221 | 0.21 | 0.459 | 0.647 | 0.445 | 0.43 |
| A549 | 0.869 | 0.726 | 0.702 | 0.652 | 0.683 | 0.663 | 0.621 | 0.562 | 0.532 | 0.608 | – | – | – | – | 0.223 | 0.218 | 0.222 | 0.208 |
| A-427 | 0.972 | 0.847 | 0.87 | 0.916 | 0.895 | 1.14 | 1.12 | 1.03 | 1.07 | 1.09 | 0.567 | 0.566 | 0.584 | 0.564 | 0.55 | 0.576 | 0.53 | 0.569 |
| ABC-1 | 1.15 | 0.868 | 1.02 | 0.83 | 0.631 | 0.95 | 0.868 | 0.854 | 0.773 | 0.626 | 0.411 | 0.271 | 0.287 | 0.28 | 0.49 | 0.539 | 0.406 | 0.423 |
| BEN | 0.894 | 0.875 | 0.818 | 1.02 | 0.956 | 0.986 | 0.921 | 0.989 | 1.14 | 1.06 | 0.452 | 0.448 | 0.487 | 0.52 | 0.75 | 0.775 | 0.713 | 0.668 |
| CAL-12T | 0.702 | 0.594 | 0.727 | 0.533 | 0.661 | 0.728 | 0.762 | 0.739 | 0.709 | 0.642 | 0.441 | 0.485 | 0.43 | 0.336 | – | – | – | – |
| COR-L23 | 0.86 | 0.554 | 0.642 | 0.604 | 0.524 | 1.1 | 0.805 | 0.827 | 0.869 | 0.877 | 0.27 | 0.24 | 0.241 | 0.247 | 0.383 | 0.409 | 0.396 | 0.409 |
| COR-L 105 | 0.865 | 0.751 | 0.827 | 0.493 | 0.548 | 0.841 | 0.876 | 0.778 | 0.662 | 0.653 | 0.403 | 0.477 | 0.405 | 0.495 | 0.676 | 0.592 | 0.667 | 0.638 |
| Calu-6 | 0.924 | 0.755 | 0.762 | 0.682 | 0.415 | 0.979 | 0.942 | 0.907 | 0.848 | 0.647 | – | – | – | – | – | – | – | – |
| ChaGo-K-1 | 1.05 | 1.03 | 1.14 | 1.01 | 0.84 | – | – | – | – | – | 0.625 | 0.502 | 0.57 | 0.553 | 0.392 | 0.465 | 0.391 | 0.374 |
| EBC-1 | 0.197 | 0.185 | 0.197 | 0.179 | 0.153 | 0.843 | 0.808 | 0.977 | 0.581 | 0.585 | – | – | – | – | – | – | – | – |
| EKVX | 0.763 | 0.842 | 0.921 | 0.807 | 0.789 | 0.935 | 1.01 | 1.03 | 0.932 | 1.08 | 0.282 | 0.257 | 0.286 | 0.292 | 0.292 | 0.261 | 0.309 | 0.225 |
| EMC-BAC-2 | 0.847 | 0.724 | 0.742 | 0.703 | 0.536 | 0.822 | 0.792 | 0.794 | 0.837 | 0.82 | 0.492 | 0.513 | 0.502 | 0.513 | 0.903 | 0.837 | 0.957 | 0.794 |
| EPLC-272H | 0.915 | 0.877 | 0.635 | 0.613 | 0.25 | 1.06 | 1.25 | 0.92 | 0.855 | 0.712 | 0.281 | 0.314 | 0.277 | 0.34 | 0.361 | 0.366 | 0.4 | 0.374 |
| H3255 | 0.976 | 0.846 | 0.812 | 0.669 | 0.827 | 0.94 | 0.949 | 0.917 | 0.984 | 0.988 | 0.296 | 0.305 | 0.309 | 0.321 | 0.484 | 0.525 | 0.464 | 0.564 |
| HARA | 1.12 | 0.912 | 0.991 | 0.997 | 1.14 | 0.915 | 0.8 | 0.876 | 0.969 | 0.857 | 0.233 | 0.25 | 0.235 | 0.222 | 0.414 | 0.384 | 0.357 | 0.319 |
